What all share (type): biochemical
One experiment has as its target T1, JAK1 (Homo sapiens, UniProt P23458).
T1 construct: purchased Carna Biosciences, Inc
The experiment can be described thus: JAK tyrosine kinase inhibitory activity in the presence of 1 mM ATP (ELISA), JAK1. Here is the method:
(§1) 1. Preparation of Test Compound
(§2) The test compound was dissolved in dimethyl sulfoxide (DMSO) to 10 mM and further diluted with DMSO to the concentrations of 1000, 100, 10, 1, 0.1 and 0.01 μM, respectively. For JAK1, these solutions of the test compound at the six concentrations 10 mM, 1000 μM, 100 μM, 10 μM, 1 μM and 0.1 μM were used. For JAK2 and JAK3, these solutions of the test compound at the six concentrations 1000 μM, 100 μM, 10 μM, 1 μM, 0.1 μM and 0.01 μM were used. The test compound solutions were diluted further to 20-fold with an assay buffer to obtain a sample solution. 15 mM Tris-HCl (pH7.5), 0.01 (v/v) % Tween-20 and 1 mM dithiothreitol were used as an assay buffer. DMSO was diluted to 20-fold with the assay buffer and was used as a negative control.
(§3) 2. JAK Tyrosine Kinase Inhibitory Activity in the Presence of 1 mM Atp
(§4) The activity was determined by ELISA method. Each of the sample solutions was added to a streptavidine coated 96-well plate (DELFIA Strip Plate 8×12 well, PerkinElmer) at 10 μL/well (n=2). […] Finally, JAK tyrosine kinase (Carna Biosciences, Inc.), which was previously diluted with the assay buffer to 7.5 nM for JAK1 and 0.75 nM for JAK2 and JAK3, was added to the plate at 20 μL/well, and the plate was incubated at 30° C. for 1 h. The plate was washed four times with buffer (50 mM Tris-HCl (pH 7.5), 150 mM NaCl, 0.02 (v/v) % Tween-20). A blocking buffer (0.1% Bovine Serum Albumin, 50 mM Tris-HCl (pH 7.5), 150 mM NaCl, 0.02 (v/v) % Tween-20) was added to the plate at 150 μL/well and the plate was blocked at 30° C. for 1 h. The blocking buffer was removed, and a horse radish peroxidase-labeled anti-phosphorylated tyrosine antibody (BD Biosciences, Inc.) (diluted to 10000-fold with the blocking buffer) was added to the plate at 100 μL/well, and the plate was incubated at 30° C. for 30 min. The plate was washed with the washing buffer four times, and 3,3′,5,5′-tetramethylbenizidine solution (Nacalai Tesque) was added to the plate at 100 μL/well to develop the color for 10 minutes. To the plate was added 0.1 M sulfuric acid at 100 μL/well to stop the reaction. The absorbance at 450 nm was measured using a microplate reader (BIO-RAD).
(§5) 3. Analysis of the Results

The next experiment concerns the target T2, JAK2 (Homo sapiens, UniProt O60674).
T2 construct: purchased Carna Biosciences, Inc
The experiment is described as follows: JAK tyrosine kinase inhibitory activity in the presence of 1 mM ATP (ELISA), JAK2. Here is the method: as §1, §2, §3, §4, §5

A further experiment concerns the target T3, JAK3 (Homo sapiens, UniProt P52333).
T3 construct: purchased Carna Biosciences, Inc
T3 sequence (P52333 1-1124): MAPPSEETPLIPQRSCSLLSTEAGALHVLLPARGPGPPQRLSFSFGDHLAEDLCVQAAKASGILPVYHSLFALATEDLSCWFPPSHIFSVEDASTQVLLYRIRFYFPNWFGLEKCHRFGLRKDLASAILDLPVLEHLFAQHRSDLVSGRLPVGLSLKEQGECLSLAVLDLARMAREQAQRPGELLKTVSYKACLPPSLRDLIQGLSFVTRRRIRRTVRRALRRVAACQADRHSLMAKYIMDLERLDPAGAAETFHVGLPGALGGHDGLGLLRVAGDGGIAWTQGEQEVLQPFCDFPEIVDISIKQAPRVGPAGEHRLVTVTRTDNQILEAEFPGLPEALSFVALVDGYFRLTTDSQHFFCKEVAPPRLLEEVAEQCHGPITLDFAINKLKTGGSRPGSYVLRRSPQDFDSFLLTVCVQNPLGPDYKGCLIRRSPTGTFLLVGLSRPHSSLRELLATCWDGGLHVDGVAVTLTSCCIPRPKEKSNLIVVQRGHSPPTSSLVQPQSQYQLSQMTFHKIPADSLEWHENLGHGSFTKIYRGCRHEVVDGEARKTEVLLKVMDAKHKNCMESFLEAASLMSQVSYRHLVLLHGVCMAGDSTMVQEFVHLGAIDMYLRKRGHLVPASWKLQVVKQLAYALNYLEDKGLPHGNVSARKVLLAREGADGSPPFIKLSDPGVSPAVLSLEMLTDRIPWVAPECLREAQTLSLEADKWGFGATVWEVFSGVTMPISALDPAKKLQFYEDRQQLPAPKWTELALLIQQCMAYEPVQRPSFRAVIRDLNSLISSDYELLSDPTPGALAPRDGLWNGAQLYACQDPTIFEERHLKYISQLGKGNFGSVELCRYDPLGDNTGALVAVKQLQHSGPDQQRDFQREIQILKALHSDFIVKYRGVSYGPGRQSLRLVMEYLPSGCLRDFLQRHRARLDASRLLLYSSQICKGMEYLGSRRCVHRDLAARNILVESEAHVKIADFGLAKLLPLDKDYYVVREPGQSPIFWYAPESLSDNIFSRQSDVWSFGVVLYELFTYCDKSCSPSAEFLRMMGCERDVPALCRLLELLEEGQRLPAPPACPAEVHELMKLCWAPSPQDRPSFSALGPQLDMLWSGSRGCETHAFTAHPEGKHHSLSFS
The experiment is described as follows: JAK tyrosine kinase inhibitory activity in the presence of 1 mM ATP (ELISA), JAK3. Here is the method: as §1, §2, §3, §4, §5

Bounds are passed on as bounds.

T2 sequence (O60674 whole entry): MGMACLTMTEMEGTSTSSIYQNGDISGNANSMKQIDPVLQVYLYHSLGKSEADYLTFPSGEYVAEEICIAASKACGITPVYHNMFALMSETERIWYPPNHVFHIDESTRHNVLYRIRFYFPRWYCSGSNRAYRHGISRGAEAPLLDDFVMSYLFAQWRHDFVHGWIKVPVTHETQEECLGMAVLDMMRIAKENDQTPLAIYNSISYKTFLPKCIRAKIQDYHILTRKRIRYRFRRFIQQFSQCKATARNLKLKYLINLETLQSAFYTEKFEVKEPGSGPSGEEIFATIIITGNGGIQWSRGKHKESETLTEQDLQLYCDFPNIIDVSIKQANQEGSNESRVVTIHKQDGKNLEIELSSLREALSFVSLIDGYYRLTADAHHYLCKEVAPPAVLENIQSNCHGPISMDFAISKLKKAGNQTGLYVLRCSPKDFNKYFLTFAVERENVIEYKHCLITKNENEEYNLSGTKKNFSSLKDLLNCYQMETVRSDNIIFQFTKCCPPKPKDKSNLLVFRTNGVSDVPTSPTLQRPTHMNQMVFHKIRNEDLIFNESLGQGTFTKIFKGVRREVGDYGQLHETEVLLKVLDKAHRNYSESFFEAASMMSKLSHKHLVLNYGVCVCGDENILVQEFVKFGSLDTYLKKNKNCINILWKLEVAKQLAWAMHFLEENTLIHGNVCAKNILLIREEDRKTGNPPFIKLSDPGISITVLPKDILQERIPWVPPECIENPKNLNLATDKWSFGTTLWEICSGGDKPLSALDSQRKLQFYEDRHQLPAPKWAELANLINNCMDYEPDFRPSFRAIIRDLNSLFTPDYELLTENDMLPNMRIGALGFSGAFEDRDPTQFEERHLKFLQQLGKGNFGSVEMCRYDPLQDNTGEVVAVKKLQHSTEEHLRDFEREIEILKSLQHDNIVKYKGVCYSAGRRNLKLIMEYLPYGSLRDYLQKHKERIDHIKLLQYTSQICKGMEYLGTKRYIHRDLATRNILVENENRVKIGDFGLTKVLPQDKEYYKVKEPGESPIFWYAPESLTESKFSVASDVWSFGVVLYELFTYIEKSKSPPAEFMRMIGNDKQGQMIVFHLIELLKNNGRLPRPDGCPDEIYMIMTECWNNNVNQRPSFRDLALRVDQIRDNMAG
T1 sequence (P23458 whole entry): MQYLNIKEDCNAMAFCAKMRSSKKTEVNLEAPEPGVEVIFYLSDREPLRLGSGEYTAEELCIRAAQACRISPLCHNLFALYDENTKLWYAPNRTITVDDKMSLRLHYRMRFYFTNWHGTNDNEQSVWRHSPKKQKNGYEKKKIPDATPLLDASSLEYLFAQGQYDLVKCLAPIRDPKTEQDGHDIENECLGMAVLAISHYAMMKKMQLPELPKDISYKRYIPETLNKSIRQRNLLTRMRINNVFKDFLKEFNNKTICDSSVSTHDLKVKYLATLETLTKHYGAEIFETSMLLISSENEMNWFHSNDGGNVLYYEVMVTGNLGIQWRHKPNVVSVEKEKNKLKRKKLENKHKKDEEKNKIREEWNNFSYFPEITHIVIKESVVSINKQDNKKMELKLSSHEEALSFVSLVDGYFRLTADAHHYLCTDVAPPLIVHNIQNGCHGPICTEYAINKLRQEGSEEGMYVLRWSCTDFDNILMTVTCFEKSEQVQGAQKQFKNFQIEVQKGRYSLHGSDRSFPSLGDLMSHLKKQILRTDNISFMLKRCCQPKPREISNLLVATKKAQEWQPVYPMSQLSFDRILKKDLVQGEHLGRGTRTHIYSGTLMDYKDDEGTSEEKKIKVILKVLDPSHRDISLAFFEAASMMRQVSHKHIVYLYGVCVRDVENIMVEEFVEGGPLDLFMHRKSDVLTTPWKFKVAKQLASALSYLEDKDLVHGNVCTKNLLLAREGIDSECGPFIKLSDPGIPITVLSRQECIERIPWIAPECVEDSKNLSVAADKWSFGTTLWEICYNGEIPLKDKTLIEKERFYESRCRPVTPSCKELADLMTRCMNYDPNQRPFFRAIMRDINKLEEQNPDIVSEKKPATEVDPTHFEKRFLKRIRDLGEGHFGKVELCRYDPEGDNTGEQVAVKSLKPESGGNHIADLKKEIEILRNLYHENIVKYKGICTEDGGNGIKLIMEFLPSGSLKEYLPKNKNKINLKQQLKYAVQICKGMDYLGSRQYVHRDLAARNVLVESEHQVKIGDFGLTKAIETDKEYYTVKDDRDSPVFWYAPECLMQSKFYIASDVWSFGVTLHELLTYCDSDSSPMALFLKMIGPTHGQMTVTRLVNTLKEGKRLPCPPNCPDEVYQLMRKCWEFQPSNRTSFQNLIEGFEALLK

Take `CC(=O)NC1CCN(C(=O)c2cc(N[C@@H](C)C3CC3)nc(-c3cnn4ccsc34)n2)CC1` [Example 2, N-(1-{[6-{[(1S)-1-Cyclopropylethyl]amino}-2-(pyrazolo[5,1-b][1,3]thiazol-7-yl)pyrimidin-4-yl]carbonyl}piperidin-4-yl)acetamide]: the IC50 at JAK1 was 570 nM; at JAK2, 2100 nM; on JAK3, 2700 nM.

As for `C[C@H](Nc1cc(C(=O)N2CCC(NC(=O)C3CC3)CC2)nc(-c2cnn3ccsc23)n1)C(C)(C)C` [Example 3, N-(1-{[6-{[(2S)-3,3-Dimethylbutan-2-yl]amino}-2-(pyrazolo[5,1-b][1,3]thiazol-7-yl)pyrimidin-4-yl]carbonyl}piperidin-4-yl)cyclopropanecarboxamide], the values for the concentration for half-maximal inhibition (IC50) on JAK1, at JAK2 and at JAK3 were 62 nM, 1400 nM and 3200 nM, respectively.

Turning to `CC(=O)NC1CCN(C(=O)c2cc(N[C@@H](C)C(C)(C)C)nc(-c3cnn4ccsc34)n2)CC1` [Example 4, N-(1-{[6-{[(2S)-3,3-Dimethylbutan-2-yl]amino}-2-(pyrazolo[5,1-b][1,3]thiazol-7-yl)pyrimidin-4-yl]carbonyl}piperidin-4-yl)acetamide], the IC50 on JAK1 turned out to be 210 nM; at JAK2 it was 730 nM; on JAK3, 3000 nM.

As to `CN(c1cc(C(=O)N2CCC(NC(=O)C3CC3)CC2)nc(-c2cnn3ccsc23)n1)[C@H]1CCC[C@@H]1OC(F)F` [Example 5, N-(1-{[6-{[(1S,2S)-2-(Difluoromethoxy)cyclopentyl](methyl)amino}-2-(pyrazolo[5,1-b][1,3]thiazol-7-yl)pyrimidin-4-yl]carbonyl}piperidin-4-yl)cyclopropanecarboxamide], the results for the IC50 at JAK1, at JAK2 and on JAK3 were 130 nM, 2500 nM and 1400 nM, respectively.

On to `CC(=O)NC1CCN(C(=O)c2nc(-c3cnn4ccsc34)nc(N[C@@H](C)C(C)(C)C)c2C)CC1` [Example 6, N-(1-{[6-{[(2S)-3,3-Dimethylbutan-2-yl]amino}-5-methyl-2-(pyrazolo[5,1-b][1,3]thiazol-7-yl)pyrimidin-4-yl]carbonyl}piperidin-4-yl)acetamide], for which the IC50 at JAK1 came to 240 nM; on JAK2 it was 1800 nM; on JAK3, 2800 nM.

In the case of `Cc1c(N[C@@H](C)C(C)(C)C)nc(-c2cnn3ccsc23)nc1C(=O)N1CCC(NC(=O)C2CC2)CC1` [Example 7, N-(1-{[6-{[(2S)-3,3-Dimethylbutan-2-yl]amino}-5-methyl-2-(pyrazolo[5,1-b][1,3]thiazol-7-yl)pyrimidin-4-yl]carbonyl}piperidin-4-yl)cyclopropanecarboxamide], the IC50 at JAK1 is 69 nM; on JAK2, greater than 10000 nM; on JAK3, 2700 nM.

As to `O=C(NC1CCN(C(=O)c2cc(NCC3(COC(F)F)CC3)nc(-c3cnn4ccsc34)n2)CC1)C1CC1` [Example 8, N-[1-({6-[({1-[(Difluoromethoxy)methyl]cyclopropyl}methyl)amino]-2-(pyrazolo[5,1-b][1,3]thiazol-7-yl)pyrimidin-4-yl}carbonyl)piperidin-4-yl]cyclopropanecarboxamide], the IC50 on JAK1 was determined as 52 nM; at JAK2 it was 2400 nM; at JAK3 it was 3800 nM.

With `O=C(NC1CCN(C(=O)c2cc(NCC3(COC(F)F)CCC3)nc(-c3cnn4ccsc34)n2)CC1)C1CC1` [Example 9, N-[1-({6-[({1-[(Difluoromethoxy)methyl]cyclobutyl}methyl)amino]-2-(pyrazolo[5,1-b][1,3]thiazol-7-yl)pyrimidin-4-yl}carbonyl)piperidin-4-yl]cyclopropanecarboxamide], the IC50 at JAK1 stood at 19 nM; at JAK2, 960 nM; on JAK3, 2000 nM.

Consider `O=C(NC1CCN(C(=O)c2cc(NCC3(COC(F)F)CCOCC3)nc(-c3cnn4ccsc34)n2)CC1)C1CC1` [Example 11, N-[1-({6-[({4-[(Difluoromethoxy)methyl]tetrahydro-2H-pyran-4-yl}methyl)amino]-2-(pyrazolo[5,1-b][1,3]thiazol-7-yl)pyrimidin-4-yl}carbonyl)piperidin-4-yl]cyclopropanecarboxamide], for which the values for the IC50 at JAK1, on JAK2 and at JAK3 were 21 nM, 2500 nM and 4800 nM, respectively.

With `Cc1c(N[C@@H](C)C2CC2)nc(-c2cnn3ccsc23)nc1C(=O)N1CCC(NC(=O)C2CC2)CC1` [Example 12, N-(1-{[6-{[(1S)-1-Cyclopropylethyl]amino}-5-methyl-2-(pyrazolo[5,1-b][1,3]thiazol-7-yl)pyrimidin-4-yl]carbonyl}piperidin-4-yl)cyclopropanecarboxamide], the IC50 at JAK1 came to 120 nM; on JAK2 it was 2200 nM; on JAK3, 1800 nM.

For the compound `CC(=O)NC1CCN(C(=O)c2nc(-c3cnn4ccsc34)nc(N[C@@H](C)C3CC3)c2C)CC1` [Example 13, N-(1-{[6-{[(1S)-1-Cyclopropylethyl]amino}-5-methyl-2-(pyrazolo[5,1-b][1,3]thiazol-7-yl)pyrimidin-4-yl]carbonyl}piperidin-4-yl)acetamide], the IC50 at JAK1 came to 400 nM; at JAK2, 2400 nM; on JAK3 it was 1600 nM.

For `COC(=O)NC1CCN(C(=O)c2cc(N[C@H](CO)C(C)(C)C)nc(-c3cnn4ccsc34)n2)CC1` [Example 63, Methyl (1-{[6-{[(2S)-1-hydroxy-3,3-dimethylbutan-2-yl]amino}-2-(pyrazolo[5,1-b][1,3]thiazol-7-yl)pyrimidin-4-yl]carbonyl}piperidin-4-yl)carbamate], the IC50 turned out to be 180 nM at JAK1 and 7300 nM at JAK2.

As for `COC(=O)NC1CCN(C(=O)c2cc(OC3CCC3)nc(-c3cnn4ccsc34)n2)CC1` [Example 65, Methyl (1-{[6-(cyclobutyloxy)-2-(pyrazolo[5,1-b][1,3]thiazol-7-yl)pyrimidin-4-yl]carbonyl}piperidin-4-yl)carbamate], the IC50 on JAK1 is 130 nM; at JAK2, 3100 nM.

For `COC(=O)NC1CCN(C(=O)c2cc(Oc3cccnc3)nc(-c3cnn4ccsc34)n2)CC1` [Example 156, Methyl (1-{[2-(pyrazolo[5,1-b][1,3]thiazol-7-yl)-6-(pyridin-3-yloxy)pyrimidin-4-yl]carbonyl}piperidin-4-yl)carbamate], the IC50 was 820 nM on JAK1 and greater than 10000 nM at JAK2.

Consider `C[C@H](Nc1cc(C(=O)N2CCC(NC(=O)C3CCCC3)CC2)nc(-c2cnn3ccsc23)n1)C1CC1` [Example 166, N-1-[6-[(1S)-1-cyclopropylethyl]amino-2-(pyrazolo[5,1-b][1,3]thiazol-7-yl)pyrimidine-4-carbonyl]piperidin-4-ylcyclopentanecarboxamide], for which the figures for the IC50 on JAK1 and on JAK3 were 280 nM and 1300 nM, respectively.

Usually IC50 stands for the concentration that gives 50% inhibition.

Values taken from patent publication US9999622B2, “Pyrazolothiazole compound and medicine comprising same” (NIPPON SHINYAKU CO., LTD., priority 2014, dated 2018).
